# Experimental data: patent US10314909B2, “Combination therapy comprising an MMP-14 binding protein” (DYAX CORP., priority 2011, dated 2019)
# B1: DX-2400: human anti-MMP-14 antibody, light and heavy chains of M0038-F01; VH SEQ ID NO: 51, VL SEQ ID NO: 52 (antibody, listed as Homo sapiens, V domains shown)
# VH: EVQLLESGGGLVQPGGSLRLSCAASGFTFSLYSMNWVRQAPGKGLEWVSSIYSSGGSTLYADSVKGRFTISRDNSKNTLYLQMNSLRAEDTAVYYCARGRAFDIWGQGTMVTVSS
# VL: DIQMTQSPSSLSASVGDRVTITCRASQSVGTYLNWYQQKPGKAPKLLIYATSNLRSGVPSRFSGSGSGTDFTLTISSLQPEDFATYYCQQSYSIPRFTFGPGTKVDIK
# Experiments:
# Assay type in all cases: in vivo
# [1] = test system: Panc-1 human pancreas cancer xenograft; experiment: subcutaneous Panc-1 human pancreas cancer xenograft model, tumor size; details: BALB/c nude mice, s.c. Panc-1; DX-2400 20 mg/kg i.v. Q3D X6; gemcitabine 50 mg/kg i.p. Q3D X4; compared to untreated mice (FIG. 4A)
# Description: The in vivo therapeutic efficacy of DX-2400 as a single agent or in combination with gemcitabine was evaluated in the treatment of a subcutaneous Panc-1 human pancreas cancer xenograft model.
# (§1) Panc-1 tumor cells were maintained in vitro as a monolayer culture in DMEM medium, supplemented with 10% heat inactivated fetal bovine serum, 100 U/ml penicillin and 100 μg/ml streptomycin, and L-glutamine (2 mM) at 37° C. in an atmosphere of 5% CO2 in air. The tumor cells will be routinely subcultured twice weekly by trypsin-EDTA treatment. The cells growing in an exponential growth phase will be harvested and counted for tumor inoculation.
# A total of 56 (40 plus 40% spare) BALB/c nude, female, 6-8 weeks, weighing approximately 18-22 g were purchased from Shanghai Laboratory Animal Center SLAC (Shanghai, China) for use in the study. […]
# (§2) The major endpoint is to see if the tumor growth can be delayed or tumor bearing mice can be cured. Tumor sizes were measured twice weekly in two dimensions using a caliper, and the volume was expressed in mm^3 using the formula: V=0.5 a×b^2 where a and b are the long and short diameters of the tumor, respectively. […] T-C is calculated with T as the time (in days) required for the mean tumor size of the treatment group to reach a predetermined size (e.g., 1000 mm^3), and C is the time (in days) for the mean tumor size of the control group to reach the same size. […]
# [2] = test system: primary human pancreatic cancer PAM527 xenograft; experiment: subcutaneous primary human pancreatic cancer PAM527 xenograft model in nude mice, tumor size; details: BALB/c nude mice, s.c. PAM527 tumor fragment; DX-2400 20 mg/kg i.v. Q3d x 6; gemcitabine 60 mg/kg i.p. Q4d x 4; compared to untreated mice (FIG. 3A)
# Description: The in vivo anti-tumor activity of DX-2400 as a single agent or in combination with gemcitabine was evaluated in the treatment of subcutaneous primary human pancreatic cancer using a PAM527 xenograft model in nude mice.
# 75 BALB/c nude mice, female, 6-8 weeks, weighing approximately 18-24 g were purchased from SLAC, Shanghai, P. R. China (40 mice+˜90% spare). Tumor fragments from seed mice inoculated with selected primary human pancreatic cancer tissues (PAM527) were harvested and used for inoculation into BALB/c nude mice. Each mouse was inoculated subcutaneously at the right flank with one tumor fragment (2-3 mm in diameter) for tumor development. The treatments were started when the mean tumor size reached approximately 150 mm^3. Each group consisted of 10 mice.
# as §2
# [3] = test system: A375 human melanoma xenograft; experiment: subcutaneous A375 human melanoma xenograft model, tumor size; details: BALB/c nude mice, s.c. A375, DX-2400 20 mg/kg i.v. Q3D X6; for tumor volume: darcabazine 150 mg/kg i.p. Day 1, 4/wk x 3, compared to untreated mice (FIG. 1); for tumor growth rate: darcabazine 150 mg/kg i.p., compared to untreated mice
# Description: The in vivo therapeutic efficacy of DX-2400 as a single agent or in combination with darcabazine was determined using a subcutaneous A375 human melanoma xenograft model.
# as §1, with “A375” for “Panc-1”, “were” for “will be”
# (§3) 55 BALB/c nude, female, 6-8 weeks, weighing approximately 18-22 were purchased from Shanghai Laboratory Animal Center SLAC (Shanghai, China) for use in the study (40 mice+˜40% spare). Each mouse was inoculated subcutaneously at the right flank with A375 tumor cells (5×10^6) in 0.1 ml of PBS for tumor development. The treatments were started when the mean tumor size reached approximately 150˜200 mm^3. Each group consisted of 10 mice.
# (§4) The major endpoint is to see if the tumor growth can be delayed or tumor bearing mice can be cured. Tumor sizes were measured twice weekly in two dimensions using a caliper, and the volume was expressed in mm^3 using the formula: V=0.5 a×b^2 where a and b are the long and short diameters of the tumor, respectively. The tumor sizes were then used for the calculations of both T-C and T/C values. T-C is calculated with T as the time (in days) required for the mean tumor size of the treatment group to reach a predetermined size (e.g., 1000 mm^3), and C is the time (in days) for the mean tumor size of the control group to reach the same size. The T/C value (in percent) is an indication of antitumor effectiveness, T and C are the mean volume of the treated and control groups, respectively, on a given day.
# [4] = test system: SK-MEL-5 human melanoma xenograft; experiment: subcutaneous SK-MEL-5 human melanoma xenograft model, tumor size; details: BALB/c nude mice, s.c. SK-MEL-5, DX-2400 20 mg/kg i.v. Q3D X6, paclitaxel 8 mg/kg i.p. Q4D X6; for tumor growth rate: compared to untreated mice; for tumor volume: compared to untreated mice (FIG. 2)
# Description: The in vivo therapeutic efficacy of DX-2400 as a single agent or in combination with Paclitaxel in the treatment of human melanoma was evaluated using a subcutaneous SK-MEL-5 human melanoma xenograft model.
# SK-MEL-5 human melanoma cells were grown in EMEM medium, supplemented with 10% heat inactivated fetal bovine serum, 100 U/ml penicillin and 100 μg/ml streptomycin at 37° C. in an atmosphere of 5% CO2 in air. The tumor cells were routinely subcultured twice weekly. Cells were harvested during the logarithmic growth period and resuspended in physical PBS with proper cell concentration and kept on ice for tumor induction.
# as §3, with “18-22 g (40 mice+˜40% spare) were used for the study. Animals” for “18-22”, “China, Shanghai).” for “China) for use in the study (40 mice+˜40% spare).”, “SK-MEL-5” for “A375”
# as §4
molecule,measurement,setting,value
Nc1ccn([C@@H]2O[C@H](CO)[C@@H](O)C2(F)F)c(=O)n1 [gemcitabine],mean tumor size,[1],reduced the tumor size
same,mean tumor size,[2],reduced the tumor size
"CN(C)/N=N/c1[nH]cnc1C(N)=O [darcabazine, dacarbazine]",tumor volume,[3],reduced tumor volume
same,tumor growth rate,[3],caused a reduction in tumor growth rate
CC(=O)O[C@H]1C(=O)[C@@]2(C)[C@H]([C@H](OC(=O)c3ccccc3)[C@]3(O)C[C@H](OC(=O)[C@H](O)[C@@H](NC(=O)c4ccccc4)c4ccccc4)C(C)=C1C3(C)C)[C@]1(OC(C)=O)CO[C@@H]1C[C@@H]2O [paclitaxel],tumor growth rate,[4],caused a reduction in tumor growth rate
same,tumor volume,[4],reduced tumor volume
B1,mean tumor size,[1],reduced the mean tumor size
same,mean tumor size,[2],reduced the mean tumor size
same,tumor growth rate,[4],caused a reduction in the tumor growth rate
same,tumor volume,[4],reduced tumor volume
same,tumor volume,[3],reduced tumor volume
same,tumor growth rate,[3],caused a reduction in the tumor growth rate
